Results from US20230111310A1, “CARBOXYLIC ACID DERIVATIVE-SUBSTITUTED IMINO ARYL COMPOUND, PREPARATION METHOD THEREFOR, HERBICIDAL COMPOSITION AND USE THEREOF” (Qingdao Kingagroot Chemical Compound Co., Ltd., priority 2020, published 2023).

Tests used:
Test in all cases: Weeding effect in post-emergence stage
Format in all cases: in vivo
Conditions in all cases: Dose 15 g/ha; level of fresh weight growth control rate
Abutilon theophrasti = tested on: Abutilon theophrasti
Summary of the method: (§1)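 Compound, dissolved in acetone and diluted in water with Tween 80 plus methyl oleate EC (1.5 liter/ha), is sprayed onto 2-3 leaf potted plants. Rates span 7.5–500 g/ha. After 3 weeks of greenhouse culture, weeding effect is counted as the mean of triplicates.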

Alopecurus japonicus = tested on: Alopecurus japonicus
Summary of the method: as §1

Digitaria sanguinalis = tested on: Digitaria sanguinalis
Summary of the method: as §1

Eleusine indica = tested on: Eleusine indica
Summary of the method: as §1

Setaria viridis = tested on: Setaria viridis
Summary of the method: as §1

Echinochloa crusgalli = tested on: Echinochloa crusgalli
Summary of the method: as §1

Row | Structure (SMILES) | Weeding effect in post-emergence stage, Abutilon theophrasti (Abutilon theophrasti) | Weeding effect in post-emergence stage, Alopecurus japonicus (Alopecurus japonicus) | Weeding effect in post-emergence stage, Digitaria sanguinalis (Digitaria sanguinalis) | Weeding effect in post-emergence stage, Eleusine indica (Eleusine indica) | Weeding effect in post-emergence stage, Setaria viridis (Setaria viridis) | Weeding effect in post-emergence stage, Echinochloa crusgalli (Echinochloa crusgalli)
1 | CC(C)COC(=O)[C@@H](C)O/N=C/c1cc(-n2c(=O)cc(C(F)(F)F)n(C)c2=O)c(F)cc1Cl [201(R)] | 5 (Level 5: growth control rate is above 85%) | 5 (Level 5: growth control rate is above 85%) | 5 (Level 5: growth control rate is above 85%) | 5 (Level 5: growth control rate is above 85%) | 5 (Level 5: growth control rate is above 85%) | 5 (Level 5: growth control rate is above 85%)
2 | C[C@@H](O/N=C/c1cc(-n2c(=O)cc(C(F)(F)F)n(C)c2=O)c(F)cc1Cl)C(=O)OC(C)(C)C [202(R)] | 5 (Level 5: growth control rate is above 85%) | 5 (Level 5: growth control rate is above 85%) | 5 (Level 5: growth control rate is above 85%) | 5 (Level 5: growth control rate is above 85%) | 5 (Level 5: growth control rate is above 85%) | 5 (Level 5: growth control rate is above 85%)
3 | CCCCCOC(=O)[C@@H](C)O/N=C/c1cc(-n2c(=O)cc(C(F)(F)F)n(C)c2=O)c(F)cc1Cl [203(R)] | 5 (Level 5: growth control rate is above 85%) | 5 (Level 5: growth control rate is above 85%) | 5 (Level 5: growth control rate is above 85%) | 5 (Level 5: growth control rate is above 85%) | 5 (Level 5: growth control rate is above 85%) | 5 (Level 5: growth control rate is above 85%)
4 | CCCCCCOC(=O)[C@@H](C)O/N=C/c1cc(-n2c(=O)cc(C(F)(F)F)n(C)c2=O)c(F)cc1Cl [204(R)] | 5 (Level 5: growth control rate is above 85%) | 5 (Level 5: growth control rate is above 85%) | 5 (Level 5: growth control rate is above 85%) | 5 (Level 5: growth control rate is above 85%) | 5 (Level 5: growth control rate is above 85%) | 5 (Level 5: growth control rate is above 85%)
5 | CCCCCCCOC(=O)[C@@H](C)O/N=C/c1cc(-n2c(=O)cc(C(F)(F)F)n(C)c2=O)c(F)cc1Cl [205(R)] | 5 (Level 5: growth control rate is above 85%) | 5 (Level 5: growth control rate is above 85%) | 5 (Level 5: growth control rate is above 85%) | 5 (Level 5: growth control rate is above 85%) | 5 (Level 5: growth control rate is above 85%) | 5 (Level 5: growth control rate is above 85%)
6 | CCCCCCCCOC(=O)[C@@H](C)O/N=C/c1cc(-n2c(=O)cc(C(F)(F)F)n(C)c2=O)c(F)cc1Cl [206(R)] | 5 (Level 5: growth control rate is above 85%) | 5 (Level 5: growth control rate is above 85%) | 5 (Level 5: growth control rate is above 85%) | 5 (Level 5: growth control rate is above 85%) | 5 (Level 5: growth control rate is above 85%) | 5 (Level 5: growth control rate is above 85%)
7 | CCCCCCC(C)OC(=O)[C@@H](C)O/N=C/c1cc(-n2c(=O)cc(C(F)(F)F)n(C)c2=O)c(F)cc1Cl (stereo partly drawn) [207(R)] | 5 (Level 5: growth control rate is above 85%) | 5 (Level 5: growth control rate is above 85%) | 5 (Level 5: growth control rate is above 85%) | 5 (Level 5: growth control rate is above 85%) | 5 (Level 5: growth control rate is above 85%) | 5 (Level 5: growth control rate is above 85%)
8 | C=CCCOC(=O)[C@@H](C)O/N=C/c1cc(-n2c(=O)cc(C(F)(F)F)n(C)c2=O)c(F)cc1Cl [209(R)] | 5 (Level 5: growth control rate is above 85%) | 5 (Level 5: growth control rate is above 85%) | 5 (Level 5: growth control rate is above 85%) | 5 (Level 5: growth control rate is above 85%) | 5 (Level 5: growth control rate is above 85%) | 5 (Level 5: growth control rate is above 85%)
9 | C[C@@H](O/N=C/c1cc(-n2c(=O)cc(C(F)(F)F)n(C)c2=O)c(F)cc1Cl)C(=O)OC1CCCC1 [214(R)] | 5 (Level 5: growth control rate is above 85%) | 5 (Level 5: growth control rate is above 85%) | 5 (Level 5: growth control rate is above 85%) | 5 (Level 5: growth control rate is above 85%) | 5 (Level 5: growth control rate is above 85%) | 5 (Level 5: growth control rate is above 85%)
10 | C[C@@H](O/N=C/c1cc(-n2c(=O)cc(C(F)(F)F)n(C)c2=O)c(F)cc1Cl)C(=O)OCC(F)F [217(R)] | 5 (Level 5: growth control rate is above 85%) | 5 (Level 5: growth control rate is above 85%) | 5 (Level 5: growth control rate is above 85%) | 5 (Level 5: growth control rate is above 85%) | 5 (Level 5: growth control rate is above 85%) | 5 (Level 5: growth control rate is above 85%)
11 | C[C@@H](O/N=C/c1cc(-n2c(=O)cc(C(F)(F)F)n(C)c2=O)c(F)cc1Cl)C(=O)OCC(C)(F)F [220(R)] | 5 (Level 5: growth control rate is above 85%) | 5 (Level 5: growth control rate is above 85%) | 5 (Level 5: growth control rate is above 85%) | 5 (Level 5: growth control rate is above 85%) | 5 (Level 5: growth control rate is above 85%) | 5 (Level 5: growth control rate is above 85%)
12 | C[C@@H](O/N=C/c1cc(-n2c(=O)cc(C(F)(F)F)n(C)c2=O)c(F)cc1Cl)C(=O)OCCC(F)(F)F [221(R)] | 5 (Level 5: growth control rate is above 85%) | 5 (Level 5: growth control rate is above 85%) | 5 (Level 5: growth control rate is above 85%) | 5 (Level 5: growth control rate is above 85%) | 5 (Level 5: growth control rate is above 85%) | 5 (Level 5: growth control rate is above 85%)
13 | C[C@@H](O/N=C/c1cc(-n2c(=O)cc(C(F)(F)F)n(C)c2=O)c(F)cc1Cl)C(=O)OC/C=C/Cl [225(R)] | 5 (Level 5: growth control rate is above 85%) | 5 (Level 5: growth control rate is above 85%) | 5 (Level 5: growth control rate is above 85%) | 5 (Level 5: growth control rate is above 85%) | 5 (Level 5: growth control rate is above 85%) | 5 (Level 5: growth control rate is above 85%)
14 | C[C@@H](O/N=C/c1cc(-n2c(=O)cc(C(F)(F)F)n(C)c2=O)c(F)cc1Cl)C(=O)OCC#N [226(R)] | 5 (Level 5: growth control rate is above 85%) | 5 (Level 5: growth control rate is above 85%) | 5 (Level 5: growth control rate is above 85%) | 5 (Level 5: growth control rate is above 85%) | 5 (Level 5: growth control rate is above 85%) | 5 (Level 5: growth control rate is above 85%)
15 | C[C@@H](O/N=C/c1cc(-n2c(=O)cc(C(F)(F)F)n(C)c2=O)c(F)cc1Cl)C(=O)OCCC#N [227(R)] | 5 (Level 5: growth control rate is above 85%) | 5 (Level 5: growth control rate is above 85%) | 5 (Level 5: growth control rate is above 85%) | 5 (Level 5: growth control rate is above 85%) | 5 (Level 5: growth control rate is above 85%) | 5 (Level 5: growth control rate is above 85%)
